According to patent US20230087078A1, “COMPOSITIONS AND METHODS FOR THE TREATMENT OF PANCREATIC CANCER” (Washington University, priority 2020, published 2023):

What was measured:
MIA paca-2 cells = assay: FACS Annexin V and PI staining, MK2 inhibitor with or without SN38; format: cell-based, human; settings: for apoptosis: MK2 inhibitor combined with SN38
Source text: P values from one-way ANOVA with Dunnett's multiple comparison test and error bars are mean+SEM. **P<0.0021, ****P<0.0001.

p-Hsp27 [1] = assay: Immunoblot of p-Hsp27 with MK2 inhibitors (SN38 or UV); format: cell-based, human; settings: at baseline and following SN38 treatment
Experimental: FIG. 2E contains immunoblot images showing PARP cleavage of MIA paca-2 and Pa01c cells treated as in FIG. 1D.
FIG. 2H contains immunoblot images of p-p38, p-MK2, and p-Hsp27 from MIA paca-2 and Pa01c cells treated with 40 J/m2 of ultraviolet light (UV) alone or with MK2 inhibitor PF-3644022.
FIG. 2I contains immunoblot images of p-MK2 and p-Hsp27 from Pa01c cells treated with 40 J/m2 UV light, alone or with MK2 inhibitor ATI-450.
Western blotting was performed according to standard procedures. Cells grown in culture were washed twice in ice-cold 1×PBS and lysed in ice-cold RIPA buffer ([…]) containing 1× protease inhibitor (Sigma), NaVO3, Na pyrophosphate, and NaF. Protein lysates were quantified by Bradford assay and suspended in 6×SDS sample buffer, followed by boiling for 5 min at 95 C. 40 ug of protein lysate was resolved on SDS-PAGE and blotted on nitrocellulose membrane. Antibodies used included p38 MAPK (CST 8690S), p38 MAPK T180/Y182 (CST 9215S), MK2 total (CST 12155S), MK2 T334 (CST 3041S), MK2 T222 (3316S), Hsp27 total (CST 2042S), Hsp27 phos S82 (9709S), ? H2Ax (CST 9718S), JNK T183/Y185 (CST 4668), GSK3 beta phos S9 (CST 5558), ATR phos T1989 (CST 58014), ATM phos 51981 (CST 4526), AMPKα1 phos T172 (CST 2335T), and GAPDH (sc-47724). […]

autophagy markers = assay: Autophagy markers (western blot, LC3 reporter) after SN38 with or without MK2 inhibitors; format: cell-based, human; settings: for SN38-induced p-Beclin1 and LC3-II: MK2 inhibitor with SN38
PDAC lines = assay: Recombinant TNFα treatment of PDAC lines: p-Hsp27, PARP cleavage, Annexin V; format: cell-based, human; settings: for TNFα-induced p-Hsp27 / apoptosis: inhibitor plus TNFα
[2] = system: p-p38, p-MK2, and p-Hsp27; assay: Immunoblot of SN38-induced p-p38, p-MK2, p-Hsp27 and apoptosis with upstream kinase inhibitors; format: cell-based, human; settings: inhibitor in combination with SN38
Experimental: FIG. 3A contains immunoblot images showing p-p38, p-MK2, and p-Hsp27 activation in MIA paca-2 and Pa01c cells treated with SN38 10 μM for 16 hours alone or with IRAK4 inhibitor 4 μM, HCQ 20 μM, ATM inhibitor 20 μM, ATR inhibitor 20 μM, or TAK1 inhibitor 2 μM.
FIG. 3B contains immunoblot images of MIA paca-2 and Pa01c cells treated with SN38 10 μM alone for 16 hours or in combination with TAK1 inhibitor 2 μM for 16 hours.
To investigated the mechanism by which DNA damage activates MK2 and Hsp27, PDAC cells were treated with SN38 alone or in combination with inhibitors of IRAK4 (PF06650833), TLR9 (hydroxychloroquine, or HCQ), ATM (KU55933), ATR (VE821), and TAK1 (5z-7-oxozeanol).

p-Hsp27 [3] = assay: Immunoblot of p-MK2 and p-Hsp27 after individual chemotherapy agents; format: cell-based, human; settings: for induction of p-MK2 and p-Hsp27: PDAC lines tested
Experimental: Western blotting was performed according to standard procedures. Cells grown in culture were washed twice in ice-cold 1×PBS and lysed in ice-cold RIPA buffer (10 nM Tris pH 7.4, 50 nM NaCl, 0.05% SDS, 0.05% Triton X-100, 0.5% sodium deoxycholate, and 10 nM EDTA) containing 1× protease inhibitor (Sigma), NaVO3, Na pyrophosphate, and NaF. Protein lysates were quantified by Bradford assay and suspended in 6×SDS sample buffer, followed by boiling for 5 min at 95 C. 40 ug of protein lysate was resolved on SDS-PAGE and blotted on nitrocellulose membrane. Antibodies used included p38 MAPK (CST 8690S), p38 MAPK T180/Y182 (CST 9215S), MK2 total (CST 12155S), MK2 T334 (CST 3041S), MK2 T222 (3316S), Hsp27 total (CST 2042S), Hsp27 phos S82 (9709S), ? H2Ax (CST 9718S), JNK T183/Y185 (CST 4668), GSK3 beta phos S9 (CST 5558), ATR phos T1989 (CST 58014), ATM phos 51981 (CST 4526), AMPKα1 phos T172 (CST 2335T), and GAPDH (sc-47724). Blots were imaged using chemiluminescent substrate (Thermo Scientific).

TNFα mRNA expression [4] = assay: qPCR of cytokine expression after SN38, Pa01c; format: cell-based, human; settings: for SN38-induced induction of TNFα: inhibitor 2 μM before SN38
Experimental: (§1) FIG. 3D contains graphs summarizing the results of qPCR for TNFα, TNFβ, TGFβ, IL-1α, and IL-1β in Mia paca-2 (right) and Pa01c (left) cells treated with control or SN38 10 μM for 16 hours. P values from two-away ANOVA with Dunnett's multiple comparison test and error bars are mean+SEM. ***P<0.0002, ****P<0.0001.
FIG. 3F is a graph summarizing the results of qPCR showing TNFα expression in Pa01c cells following treatment with SN38 10 μM alone for 16 hours, or in combination with TAKli 2 μM or IKKi 2 μM for 24 hours prior to treatment with SN38 10 μM for 16 hours. P values from two-away ANOVA with Dunnett's multiple comparison test and error bars are mean+SEM. *P<0.0247, **P<0.0025.
(§2) RNAzol RT (Sigma) was used to isolate total RNA. cDNA was made with High Capacity cDNA reverse transcription kit (Thermo Fisher Scientific, 4368814). qPCR was performed with SYBR-Green reagent (Applied Biosciences). All experiments were performed in biological duplicates or triplicates (n=2, 3).
(§3) Because TAK1 is known to be a downstream kinase of TNF, TGFβ, and IL-1 receptors, a candidate approach was used to survey expression of TNFα/β, TGFβ, and IL-1α/β.

TNFα mRNA expression [5] = assay: qPCR of cytokine expression after SN38, MIA Paca-2; format: cell-based, human; settings: MIA Paca-2 cells, SN38 10 μM for 16 hours
Experimental: as §1, §2, §3

TNFα protein = assay: TNFα ELISA of Pa01c supernatant; format: cell-based, human; settings: Pa01c cells, SN38 10 μM for 16 hours
Experimental: FIG. 3E is a graph summarizing TNFα ELISA of Pa01c cells treated with control or SN38 10 μM for 16 hours overnight. P values from one-way ANOVA with Dunnett's multiple comparison test and error bars are mean+SEM. *P<0.0332.
as §3

[6] = system: non-pancreatic cancer cell lines (colon, gastric, breast); assay: Apoptosis of non-pancreatic cancer cell lines with SN38 and ATI-450; format: cell-based; settings: combination SN38 and ATI-450
PDAC cells = assay: Apoptosis after SN38 with autophagy inhibition (HCQ, Beclin-1 ablation); format: cell-based, human
Source text: FIG. 4D contains immunoblot images of MIA paca-2 and Pa01c cells following treatment with SN38, HCQ, or the combination. P values from two-way ANOVA with Sidak's multiple comparison test and error bars are mean+SEM. ***P=0.0009, *P=0.035.
FIG. 4F contains immunoblot images of MIA paca-2 control cells or Beclin 1 (BECN1) knockout treated with SN38, ATI-450, or the combination.
FIG. 4G contains scatter plots (left) and a graph summarizing quantification of a FACS analysis of MIA paca-2 control cells or Beclin 1 knockout cells treated with control (DMSO) or SN38 10 μM for 24 hours; graphic quantification of annexin V positive cells on the right.

KPPC mice [7] = assay: KPPC mice, ATI-450 chow for two weeks, histologic analysis of pancreata; format: in vivo
Experimental: (§4) Tumors were formalin-fixed, paraffin-embedded, sectioned, and stained with hematoxylin and eosin (H&E). Immunohistochemistry (IHC) staining was performed using the following antibodies: p-Hsp27 S82 (CST cat #9709S), p-MK2 T334 (CST cat #3041S), p-p38 T180/Y182 (CST cat #9215S). Ten 200× or 400× power fields were analyzed per tumor independently by two individuals, and data were presented as mean+SEM of collated data. IHC sections were interpreted independently by two individual reviewers and representative data agreeable to all members were presented.
(§5) KPPC (p48-Cre/p53Flox/Flox LSL-KRASG12D) mice were created as described in previous publications. Treatment began six weeks after birth when tumors spontaneously form in vivo. FOLFIFINOX treatment was given by weekly intraperitoneal (I.P.) injection of 5-FU 25 mg/kg, irinotecan 17.5 mg/kg, and oxaliplatin 3.3 mg/kg. ATI-450 treatment was given as drug-impregnated chow, ad libitum, starting six weeks after birth; when given in combination with chemotherapy, ATI-450 chow was begun the day prior to initiation of chemotherapy.
To complement the human xenograft models, which lacked the desmoplastic tumor microenvironment and intact immune system essential for PDAC development, an autochthonous KPPC (p48-Cre; p53flox/flox; LSL-KRASG12D) mouse model was treated and observed. KPPC mice were treated with vehicle or ATI-450 ad libitum in chow starting from 6 weeks-old of age when foci of invasive PDAC start to appear. After two weeks of treatment, all mice were euthanized and their pancreata were subjected to histologic analysis.

KPPC mice [8] = assay: Autochthonous KPPC model, survival and tumor analysis; format: in vivo
Experimental: as §4, §5
All mice were treated beginning at 6 weeks of age until humane endpoints were reached.

[9] = patients with rheumatoid arthritis; cited from earlier work

Cc1ccc(-c2ccc3c(ccc4sc5c(c43)NC[C@@H](C)NC5=O)n2)cn1 [PF-3644022]
toxicity to PDAC cells (MIA paca-2 cells; MK2 inhibitor alone): not toxic | apoptosis (MIA paca-2 cells): significantly increased apoptosis | p-Hsp27 (p-Hsp27 [1]): abolished | SN38-induced p-Beclin1 and LC3-II (autophagy markers): robustly suppress

TNFα
apoptosis (PARP cleavage and Annexin V staining) (PDAC lines; recombinant TNFα alone): induced apoptosis | p-Hsp27 (PDAC lines; recombinant TNFα alone): upregulated

CC(C)(C)C(=O)N1N=CC[C@H]1c1ccccc1 [RIPK inhibitor]
SN38-induced p-p38, p-MK2, and p-Hsp27 [2]: not blocked | TNFα-induced p-Hsp27 (PDAC lines): did not block p-Hsp27 | apoptosis (PDAC lines): did not block p-Hsp27 or alter apoptosis

Nc1ccn([C@@H]2O[C@H](CO)[C@@H](O)C2(F)F)c(=O)n1 [Gemcitabine]
induction of p-MK2 and p-Hsp27 (p-Hsp27 [3]): much lower degree

COc1cc(O)c2c(c1)/C=C/C[C@H](O)[C@H](O)C(=O)/C=C\C[C@H](C)OC2=O [5z-7-oxozeanol, (5Z)-7-Oxozeaenol]
SN38-induced p-p38, p-MK2, and p-Hsp27 [2]: completely blocked | apoptotic effect of SN38 [2]: potentiated | SN38-induced induction of TNFα (TNFα mRNA expression [4]; Pa01c cells): abrogated

CCc1c2c(nc3ccc(O)cc13)-c1cc3c(c(=O)n1C2)COC(=O)[C@]3(O)CC [SN38]
activation of p-Hsp27 (p-Hsp27 [3]; MIA Paca-2 cells, vehicle, 5-FU, SN38 or oxaliplatin individually): most strongly activates Hsp27 | induction of p-MK2 and p-Hsp27 (p-Hsp27 [3]): potently induced | TNFα mRNA expression (TNFα mRNA expression [5]): ~30 fold | TNFβ expression (TNFα mRNA expression [4]; Pa01c cells following SN38): elevated | TNFα mRNA expression (TNFα mRNA expression [4]; Pa01c cells, SN38 10 μM for 16 hours): ~30 fold | TNFα protein in supernatant (TNFα protein): increased TNFα protein | LC3-GFP reporter expression (autophagy markers; PDAC cells): significantly decreased | autophagy markers: p-ULK1 (S555), p-AMPKα (T172), p-Beclin1 (S90), p62 (autophagy markers; western blots): markedly induced

Cc1cnc(-c2ccnc(C(C)(C)O)n2)cc1-n1c(C)cc(OCc2ncc(F)cc2F)c(Cl)c1=O [ATI-450]
apoptosis (MIA paca-2 cells): replicated | p-Hsp27 (p-Hsp27 [1]): replicated | apoptosis [6]: sensitized the cells to apoptosis | TNFα-induced p-Hsp27 (PDAC lines): abrogated | apoptosis (PDAC lines): augmented apoptosis | SN38-induced p-Beclin1 and LC3-II (autophagy markers): robustly suppress | apoptosis (PDAC cells; Beclin-1-ablated cells, added to SN38): only marginally increased apoptosis | PDAC burden of pancreata (KPPC mice [7]; ATI-450 in chow from 6 weeks of age, two weeks): significantly lower PDAC burdens | fractions of normal or early PanIN lesions (KPPC mice [7]; ATI-450 in chow, two weeks): relatively higher fractions | tumor fibrosis by Sirius Red staining (KPPC mice [7]; ATI-450 in chow, two weeks): significantly less fibrotic | progression of PDAC (KPPC mice [7]; single agent): significantly delayed | PDAC lesions (KPPC mice [8]; addition of ATI-450 to FOLFIRINOX): almost completely ablated | tumor histology (H&E) (KPPC mice [8]; mouse, in vivo): smaller but retained a significant fraction of overt PDAC | survival (KPPC mice [8]; treated from 6 weeks of age until humane endpoints): improved survival significantly greater than vehicle | p-Hsp27 (IHC), in vivo on-target effect (KPPC mice [8]; tumor sections): completely suppressed | tolerability [9]: well-tolerated

CCN(CCO)CCCC(C)Nc1ccnc2cc(Cl)ccc12 (stereo not drawn) [hydroxychloroquine]
apoptosis (PDAC cells; PDAC cells treated with SN38 and HCQ): significantly higher levels of apoptosis

O=C(Nc1cc(C(F)(F)F)cc(C(F)(F)F)c1)c1cc(Cl)ccc1O [IMD0354]
SN38-induced induction of TNFα (TNFα mRNA expression [4]; Pa01c cells): abrogated
